US10894817B2, “Fatty acid modified urocortin-2 analogs for the treatment of diabetes and chronic kidney disease” (priority 2016, dated 2021)
Starred links: 1 amine or outer side, 2 acyl side, 3 side chain; linkers in the order of their positions; H or OH if unused. Non-standard residues stand in square brackets, D forms with d. Residues, ends and D or L forms follow the SMILES beside them. Groups on a side chain read outwards from the residue. *: point of attachment. C20 diacid = O=C(O)CCCCCCCCCCCCCCCCCCC(=O)*; C18 diacid = O=C(O)CCCCCCCCCCCCCCCCC(=O)*; γGlu = O=C(O)[C@H](CCC(=O)[*:2])N[*:1]; NMeI = CC[C@H](C)[C@H](NC)C(=O)O; AEEA = NCCOCCOCC(=O)O

Target: T1, human CRHR2b (Homo sapiens, UniProt Q13324)
T1 construct: expressed in transfected cells; host or cells: Chinese Hamster Ovary (CHO) cells, transient transfection
T1 sequence (Q13324 1-438 isoform Q13324-2): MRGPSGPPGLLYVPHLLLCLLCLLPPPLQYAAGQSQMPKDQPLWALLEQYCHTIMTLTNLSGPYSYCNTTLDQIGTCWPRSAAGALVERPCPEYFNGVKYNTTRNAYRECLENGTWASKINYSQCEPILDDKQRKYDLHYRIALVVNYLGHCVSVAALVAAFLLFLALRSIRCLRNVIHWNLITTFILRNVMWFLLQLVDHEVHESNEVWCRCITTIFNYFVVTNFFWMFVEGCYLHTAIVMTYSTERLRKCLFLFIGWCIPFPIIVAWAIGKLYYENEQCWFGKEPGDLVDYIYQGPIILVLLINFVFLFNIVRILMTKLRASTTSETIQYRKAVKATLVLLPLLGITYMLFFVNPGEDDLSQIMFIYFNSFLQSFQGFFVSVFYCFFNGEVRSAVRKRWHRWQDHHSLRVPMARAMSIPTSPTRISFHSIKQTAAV
Experiment: human CRHR2b cell-based cAMP assay
Conditions: cAMP assay; Table 26, compounds of Example 9; read-out: hCRHR2b Average EC50
Method in brief: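 ED50 values are means ± SEM over several runs, curve-fitted from cAMP in pmol, calibrated against unlabeled-cAMP standards. Detection was HTRF competition, ratio 665/620 nm, after 30 min agonist exposure at 37 °C.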

| SMILES | EC50 [nM] |
| --- | --- |
| CC[C@H](C)[C@H](N)C(=O)N[C@H](C(=O)N[C@@H](CC(C)C)C(=O)N[C@@H](CO)C(=O)N[C@@H](CC(C)C)C(=O)N[C@@H](CC(=O)O)C(=O)N[C@H](C(=O)N1CCC[C@H]1C(=O)N[C@H](C(=O)NCC(=O)N[C@@H](CC(C)C)C(=O)N[C@@H](CC(C)C)C(=O)N[C@@H](CCC(N)=O)C(=O)N[C@H](C(=O)N[C@@H](CC(C)C)C(=O)N[C@@H](CC(C)C)C(=O)N[C@@H](CCC(=O)O)C(=O)N[C@@H](CCC(N)=O)C(=O)N[C@@H](CCC(=O)O)C(=O)N[C@@H](CCCCN)C(=O)N[C@@H](CCC(N)=O)C(=O)N[C@@H](CCC(=O)O)C(=O)N[C@@H](CCCCN)C(=O)N[C@@H](CCC(=O)O)C(=O)N[C@@H](CCCCN)C(=O)N[C@@H](CCCCNC(=O)COCCOCCNC(=O)COCCOCCNC(=O)CC[C@H](NC(=O)CC[C@H](NC(=O)CCCCCCCCCCCCCCCCC(=O)O)C(=O)O)C(=O)O)C(=O)N[C@@H](CCC(N)=O)C(=O)N[C@@H](C)C(=O)N[C@H](C(=O)N[C@@H](CCC(=O)O)C(=O)N[C@@H](CC(N)=O)C(=O)N[C@@H](C)C(=O)N[C@@H](CCC(N)=O)C(=O)N[C@H](C(=O)N[C@@H](CC(C)C)C(=O)N[C@@H](C)C(=O)N[C@@H](CCC(N)=O)C(=O)N[C@H](C(N)=O)C(C)C)[C@@H](C)CC)[C@@H](C)O)[C@@H](C)CC)[C@@H](C)CC)C(C)C)C(C)C [Compound 54] (H-IVLSLDVPIGLLQILLEQEKQEKEKK([AEEA-AEEA-γGlu-γGlu-C18 diacid])QATENAQILAQV-NH2) | 4.26 |
| CC[C@H](C)[C@H](NC)C(=O)N[C@H](C(=O)N[C@@H](CC(C)C)C(=O)N[C@@H](CO)C(=O)N[C@@H](CC(C)C)C(=O)N[C@@H](CC(=O)O)C(=O)N[C@H](C(=O)N1CCC[C@H]1C(=O)N[C@H](C(=O)NCC(=O)N[C@@H](CC(C)C)C(=O)N[C@@H](CC(C)C)C(=O)N[C@@H](CCC(N)=O)C(=O)N[C@H](C(=O)N[C@@H](CC(C)C)C(=O)N[C@@H](CC(C)C)C(=O)N[C@@H](CCC(=O)O)C(=O)N[C@@H](CCC(N)=O)C(=O)N[C@@H](CCC(=O)O)C(=O)N[C@@H](CCCCN)C(=O)N[C@@H](CCC(N)=O)C(=O)N[C@@H](CCC(=O)O)C(=O)N[C@@H](CCCCN)C(=O)N[C@@H](CCC(=O)O)C(=O)N[C@@H](CCCCN)C(=O)N[C@@H](CCC(N)=O)C(=O)N[C@@H](CCC(N)=O)C(=O)N[C@@H](C)C(=O)N[C@@H](CCCCNC(=O)COCCOCCNC(=O)CC[C@H](NC(=O)CC[C@H](NC(=O)CCCCCCCCCCCCCCCCCCC(=O)O)C(=O)O)C(=O)O)C(=O)N[C@@H](CCC(=O)O)C(=O)N[C@@H](CC(N)=O)C(=O)N[C@@H](C)C(=O)N[C@@H](CCC(=O)O)C(=O)N[C@H](C(=O)N[C@@H](CC(C)C)C(=O)N[C@@H](C)C(=O)N[C@@H](CCC(N)=O)C(=O)N[C@H](C(N)=O)C(C)C)[C@@H](C)CC)[C@@H](C)CC)[C@@H](C)CC)C(C)C)C(C)C [Compound 57] (H-[NMeI]VLSLDVPIGLLQILLEQEKQEKEKQQAK([AEEA-γGlu-γGlu-C20 diacid])ENAEILAQV-NH2) | 3.65 |
| CC[C@H](C)[C@H](NC)C(=O)N[C@H](C(=O)N[C@@H](CC(C)C)C(=O)N[C@@H](CO)C(=O)N[C@@H](CC(C)C)C(=O)N[C@@H](CC(=O)O)C(=O)N[C@H](C(=O)N1CCC[C@H]1C(=O)N[C@H](C(=O)NCC(=O)N[C@@H](CC(C)C)C(=O)N[C@@H](CC(C)C)C(=O)N[C@@H](CCC(N)=O)C(=O)N[C@H](C(=O)N[C@@H](CC(C)C)C(=O)N[C@@H](CC(C)C)C(=O)N[C@@H](CCC(=O)O)C(=O)N[C@@H](CCC(N)=O)C(=O)N[C@@H](CCC(=O)O)C(=O)N[C@@H](CCCCN)C(=O)N[C@@H](CCC(N)=O)C(=O)N[C@@H](CCC(=O)O)C(=O)N[C@@H](CCCCN)C(=O)N[C@@H](CCC(=O)O)C(=O)N[C@@H](CCCCN)C(=O)N[C@@H](CCC(N)=O)C(=O)N[C@@H](CCC(N)=O)C(=O)N[C@@H](C)C(=O)N[C@@H](CCCCNC(=O)CC[C@H](NC(=O)CC[C@H](NC(=O)CCCCCCCCCCCCCCCCCCC(=O)O)C(=O)O)C(=O)O)C(=O)N[C@@H](CCC(=O)O)C(=O)N[C@@H](CC(N)=O)C(=O)N[C@@H](C)C(=O)N[C@@H](CCC(=O)O)C(=O)N[C@H](C(=O)N[C@@H](CC(C)C)C(=O)N[C@@H](C)C(=O)N[C@@H](CCC(N)=O)C(=O)N[C@H](C(N)=O)C(C)C)[C@@H](C)CC)[C@@H](C)CC)[C@@H](C)CC)C(C)C)C(C)C [Compound 58] (H-[NMeI]VLSLDVPIGLLQILLEQEKQEKEKQQAK([γGlu-γGlu-C20 diacid])ENAEILAQV-NH2) | 3.79 |
| CC[C@H](C)[C@H](NC)C(=O)N[C@H](C(=O)N[C@@H](CC(C)C)C(=O)N[C@@H](CO)C(=O)N[C@@H](CC(C)C)C(=O)N[C@@H](CC(=O)O)C(=O)N[C@H](C(=O)N1CCC[C@H]1C(=O)N[C@H](C(=O)NCC(=O)N[C@@H](CC(C)C)C(=O)N[C@@H](CC(C)C)C(=O)N[C@@H](CCC(N)=O)C(=O)N[C@H](C(=O)N[C@@H](CC(C)C)C(=O)N[C@@H](CC(C)C)C(=O)N[C@@H](CCC(=O)O)C(=O)N[C@@H](CCC(N)=O)C(=O)N[C@@H](CCC(=O)O)C(=O)N[C@@H](CCCCN)C(=O)N[C@@H](CCC(N)=O)C(=O)N[C@@H](CCC(=O)O)C(=O)N[C@@H](CCCCN)C(=O)N[C@@H](CCC(=O)O)C(=O)N[C@@H](CCCCN)C(=O)N[C@@H](CCC(N)=O)C(=O)N[C@@H](CCC(N)=O)C(=O)N[C@@H](C)C(=O)N[C@@H](CCCCNC(=O)CC[C@H](NC(=O)COCCOCCNC(=O)CC[C@H](NC(=O)CC[C@H](NC(=O)CCCCCCCCCCCCCCCCCCC(=O)O)C(=O)O)C(=O)O)C(=O)O)C(=O)N[C@@H](CCC(=O)O)C(=O)N[C@@H](CC(N)=O)C(=O)N[C@@H](C)C(=O)N[C@@H](CCC(=O)O)C(=O)N[C@H](C(=O)N[C@@H](CC(C)C)C(=O)N[C@@H](C)C(=O)N[C@@H](CCC(N)=O)C(=O)N[C@H](C(N)=O)C(C)C)[C@@H](C)CC)[C@@H](C)CC)[C@@H](C)CC)C(C)C)C(C)C [Compound 59] (H-[NMeI]VLSLDVPIGLLQILLEQEKQEKEKQQAK([γGlu-AEEA-γGlu-γGlu-C20 diacid])ENAEILAQV-NH2) | 2.62 |

The remaining molecules from weak to strong by EC50, led by results:

| EC50 [nM] | SMILES |
| --- | --- |
| 2.55 | CC[C@H](C)[C@H](NC)C(=O)N[C@H](C(=O)N[C@@H](CC(C)C)C(=O)N[C@@H](CO)C(=O)N[C@@H](CC(C)C)C(=O)N[C@@H](CC(=O)O)C(=O)N[C@H](C(=O)N1CCC[C@H]1C(=O)N[C@H](C(=O)NCC(=O)N[C@@H](CC(C)C)C(=O)N[C@@H](CC(C)C)C(=O)N[C@@H](CCC(N)=O)C(=O)N[C@H](C(=O)N[C@@H](CC(C)C)C(=O)N[C@@H](CC(C)C)C(=O)N[C@@H](CCC(=O)O)C(=O)N[C@@H](CCC(N)=O)C(=O)N[C@@H](CCC(=O)O)C(=O)N[C@@H](CCCCN)C(=O)N[C@@H](CCC(N)=O)C(=O)N[C@@H](CCC(=O)O)C(=O)N[C@@H](CCCCN)C(=O)N[C@@H](CCC(=O)O)C(=O)N[C@@H](CCCCN)C(=O)N[C@@H](CCC(N)=O)C(=O)N[C@@H](CCC(N)=O)C(=O)N[C@@H](C)C(=O)N[C@@H](CCCCNC(=O)CC[C@H](NC(=O)COCCOCCNC(=O)COCCOCCNC(=O)CC[C@H](NC(=O)CC[C@H](NC(=O)CCCCCCCCCCCCCCCCCCC(=O)O)C(=O)O)C(=O)O)C(=O)O)C(=O)N[C@H](C(=O)N[C@@H](CC(N)=O)C(=O)N[C@@H](C)C(=O)N[C@@H](CCC(N)=O)C(=O)N[C@H](C(=O)N[C@@H](CC(C)C)C(=O)N[C@@H](C)C(=O)N[C@@H](CCC(N)=O)C(=O)N[C@H](C(N)=O)C(C)C)[C@@H](C)CC)[C@@H](C)O)[C@@H](C)CC)[C@@H](C)CC)C(C)C)C(C)C [Compound 60] (H-[NMeI]VLSLDVPIGLLQILLEQEKQEKEKQQAK([γGlu-AEEA-AEEA-γGlu-γGlu-C20 diacid])TNAQILAQV-NH2) |
| 1.51 | CC[C@H](C)[C@H](N)C(=O)N[C@H](C(=O)N[C@@H](CC(C)C)C(=O)N[C@@H](CO)C(=O)N[C@@H](CC(C)C)C(=O)N[C@@H](CC(=O)O)C(=O)N[C@H](C(=O)N1CCC[C@H]1C(=O)N[C@H](C(=O)NCC(=O)N[C@@H](CC(C)C)C(=O)N[C@@H](CC(C)C)C(=O)N[C@@H](CCC(N)=O)C(=O)N[C@H](C(=O)N[C@@H](CC(C)C)C(=O)N[C@@H](CC(C)C)C(=O)N[C@@H](CCC(=O)O)C(=O)N[C@@H](CCC(N)=O)C(=O)N[C@@H](CCC(=O)O)C(=O)N[C@@H](CCCCN)C(=O)N[C@@H](CCC(N)=O)C(=O)N[C@@H](CCC(=O)O)C(=O)N[C@@H](CCCCN)C(=O)N[C@@H](CCC(=O)O)C(=O)N[C@@H](CCCCN)C(=O)N[C@@H](CCC(N)=O)C(=O)N[C@@H](CCC(N)=O)C(=O)N[C@@H](C)C(=O)N[C@@H](CCCCNC(=O)COCCOCCNC(=O)COCCOCCNC(=O)CC[C@H](NC(=O)CC[C@H](NC(=O)CCCCCCCCCCCCCCCCC(=O)O)C(=O)O)C(=O)O)C(=O)N[C@@H](CCC(=O)O)C(=O)N[C@@H](CC(N)=O)C(=O)N[C@@H](C)C(=O)N[C@@H](CCC(N)=O)C(=O)N[C@H](C(=O)N[C@@H](CC(C)C)C(=O)N[C@@H](C)C(=O)N[C@@H](CCC(N)=O)C(=O)N[C@H](C(N)=O)C(C)C)[C@@H](C)CC)[C@@H](C)CC)[C@@H](C)CC)C(C)C)C(C)C [Compound 55] (H-IVLSLDVPIGLLQILLEQEKQEKEKQQAK([AEEA-AEEA-γGlu-γGlu-C18 diacid])ENAQILAQV-NH2) |
